The text below walks through data of patent US20030032003A1, “IN VIVO SELECTION” (priority 2000, published 2003).

Like-named read-outs stand apart in the source and are kept apart here.

For series [1], the system named is T cells from Lesch Nyhan syndrome patients and Hprt deficient brothers. As to conditions: cited from earlier work.
Series [2] has as its system Hprt −/− mice. Put plainly: Biochemical analysis of mouse serum after 6TG. It counts as in vivo. The following applies: serum 14 days after treatment. The protocol: Serum biochemistry parameters analyzed included blood urea nitrogen (BUN), aspartate amino transferase (AST), alanine amino transferase (ALT), creatine kinase (CK), and alkaline phosphatase (AP). The analyses were performed at Tufts University Veterinary Medical Diagnosis Laboratory with the chemical analyser Hitachi 747. Blood was collected from the posterior vena cava of Hprt deficient mice that were either treated with water, 25, 500, or 720 mg/kg 6TG i.p. and wildtype mice administered 25 mg/kg 6TG.
[…] Serum samples taken 14 days after treatment were evaluated for the levels of blood urea nitrogen (BUN), aspartate amino transferase (AST), alanine amino transferase (ALT), creatine kinase (CK) and alkaline phosphatase (AP). Elevated BUN is associated with dehydratation and/or renal insufficiency. Elevated activities of ALT and AST are characteristic for liver damage particularly necrosis, cirrhosis and/or hepatitis and also muscle trauma or myocardial infarction or myositis. Elevated AP is associated mostly with increased bone marrow metabolism and also with hapatocellular damage during hepatitis. CK is predominantly located in muscles and therefore its increased activities are consequence of muscular trauma, myocardial infarction or myopathic disorders.

Series [3] has as its system embryos of C57BL6/J Hprt −/− females mated with wildtype Hprt +/o males. It counts as in vivo. The following applies: for Offspring ♀ (Hprt +/−, sensitive) / Offspring ♂ (Hprt −/o, resistant): three i.p. injections of 20 mg/kg in 24 hrs intervals during gestation. As for the experimental part: The animals were housed in standard plastic microisolator cages with wood-chip bedding. The room was maintained at 22° C. and 70% humidity and the light cycle was 12 hours. Water and mouse diet No:5015 (PMI Feeds, Inc., St. Louis, Mo.) was supplied ad libitum. All housing and treatment protocols were reviewed and approved by an institutional Animal Care Committee.
Hprt −/− females (5-8 weeks old) were mated with wildtype males and the presence of vaginal plugs was examined daily. The day when a plug appeared was considered to be day 1 of pregnancy and the male was separated. The pregnant dams were treated with three i.p. injections of 6-thioguanine (20 mg/kg) or in control matings with saline starting […] in 24 hrs intervals. Pregnant mice were examined daily until term. The gender of offsprings was first determined 24 days after delivery and confirmed at the time of weaning (4 weeks of age).
An experiment was designed to investigate whether one could select against Hprt wildtype embryos with 6-thioguanine. Female mice C57BL6/J Hprt −/− were mated with wildtype Hprt +/o males. Since the Hprt gene is located on the X chromosome the resulting male offspring will be Hprt −/o and therefore resistant to 6-thioguanine (6TG). On the other hand, female offspring will be Hprt +/− and thus sensitive to 6TG. 6TG (Sigma) was injected i.p. in three subsequential doses (20 mg/kg each) in 24 hrs intervals starting on the third day of gestation. Mice were screened two times daily for possible toxic effects.

As for `Nc1nc(S)c2[nH]cnc2n1` [6TG, 2-amino-6-merkaptopurine], in series [1] (T cells from Lesch Nyhan syndrome patients), the “6TG resistance higher than cells from normal individuals” value is 300 fold. For the same compound, the “6TG resistance greater than normal individuals” value in series [1] (T cells of Hprt deficient brothers without signs of the disease) is 10 fold. In series [2] (25 mg/kg single i.p.), this compound came in with an ALT of 28.7 ± 14.9 u/l, an AP of 78.7 ± 22.5 u/l, an AST of 53.3 ± 17.5 u/l and a BUN of 18.5 ± 0.6 mg/dL. For the same compound, the CK in series [2] (25 mg/kg single i.p.) turned out to be 67.7 ± 41.2 u/l. In series [2] (500 mg/kg single i.p.), this compound returned an ALT of 14.3 ± 3.5 u/l, an AP of 71.0 ± 38.0 u/l, an AST of 50. ± 11.8 u/l and a BUN of 18.0 ± 1.0 mg/dL. In series [2] (500 mg/kg single i.p.), this compound registered a CK of 52.0 ± 23.3 u/l. In series [2] (720 mg/kg single i.p.), the ALT was 13.7 ± 1.5 u/l, the AP was determined as 78.7 ± 20.5 u/l, the AST is 43.3 ± 14.0 u/l and the BUN worked out at 20.0 ± 2.7 mg/dL. In addition, the CK in series [2] (720 mg/kg single i.p.) is recorded as 37.3 ± 11.6 u/l. Moreover, in series [3] (Dam 1T), the “Offspring ♀ (Hprt +/−, sensitive)” value worked out at 0 and the “Offspring ♂ (Hprt −/o, resistant)” value is 4. Further, in series [3] (Dam 2T), the “Offspring ♀ (Hprt +/−, sensitive)” value is recorded as 0 and the “Offspring ♂ (Hprt −/o, resistant)” value is given as 2. Also, the “toxicity to the dams” value in series [3] (Hprt −/− dams, three doses 20 mg/kg i.p.) was “did not cause any apparent toxic symptoms or discomfort to the dams”. The male offspring delivered in series [3] (two 6TG treated dams together) is reported as 6.
